# System: Hepatitis C virus
# Test: microbe, parasite or virus in culture
# Format: functional, organism-based, Hepacivirus hominis, genotype 1b, Huh-luc/neo-ET
# Conditions: Hepatitis C virus, genotype 1b, Huh-luc/neo-ET, 72 h
# Description: Antiviral activity against HCV-1b infected human Huh-luc/neo-ET replicon cells after 72 hrs by luciferase based replicon assay
row,Structure (SMILES),EC50
1,CS(=O)(=O)Nc1ccc2c(c1)S(=O)(=O)N=C(C1=C(O)[C@@H]3[C@@H]4CC[C@@H](C4)[C@@H]3N(Cc3ccc(F)c(F)c3F)C1=O)N2,0.046 µM
2,COc1cc(CN2C(=O)C(C3=NS(=O)(=O)c4cc(NS(C)(=O)=O)ccc4N3)=C(O)[C@@H]3[C@@H]4CC[C@@H](C4)[C@@H]32)ccc1F,0.059 µM
3,CS(=O)(=O)Nc1ccc2c(c1)S(=O)(=O)N=C(C1=C(O)[C@@H]3[C@@H]4CC[C@@H](C4)[C@@H]3N(Cc3ccc(Cl)cc3)C1=O)N2,0.073 µM
4,COc1cccc(CN2C(=O)C(C3=NS(=O)(=O)c4cc(NS(C)(=O)=O)ccc4N3)=C(O)[C@@H]3[C@@H]4CC[C@@H](C4)[C@@H]32)c1,0.062 µM
5,CS(=O)(=O)Nc1ccc2c(c1)S(=O)(=O)N=C(C1=C(O)[C@@H]3[C@@H]4CC[C@@H](C4)[C@@H]3N(Cc3ccccc3F)C1=O)N2,0.063 µM
6,CS(=O)(=O)Nc1ccc2c(c1)S(=O)(=O)N=C(C1=C(O)[C@@H]3[C@H]4CC[C@H](C4)[C@@H]3N(CC3CCCCC3)C1=O)N2,0.022 µM
7,Cc1ccc(CN2C(=O)C(C3=NS(=O)(=O)c4cc(NS(C)(=O)=O)ccc4N3)=C(O)[C@@H]3[C@H]4CC[C@H](C4)[C@@H]32)cc1F,0.77 µM
8,COc1cccc(CN2C(=O)C(C3=NS(=O)(=O)c4cc(NS(C)(=O)=O)ccc4N3)=C(O)[C@@H]3[C@H]4CC[C@H](C4)[C@@H]32)c1,0.07 µM
9,CS(=O)(=O)Nc1ccc2c(c1)S(=O)(=O)N=C(C1=C(O)[C@@H]3[C@H]4CC[C@H](C4)[C@@H]3N(Cc3ccccc3Cl)C1=O)N2,0.09 µM
10,CS(=O)(=O)Nc1ccc2c(c1)S(=O)(=O)N=C(C1=C(O)[C@@H]3[C@H]4CC[C@H](C4)[C@@H]3N(Cc3ccccc3)C1=O)N2,0.029 µM
11,CC(C)CCN1C(=O)C(C2=NS(=O)(=O)c3cc(NS(C)(=O)=O)ccc3N2)=C(O)[C@@H]2C3CCC(CC3)[C@@H]21,0.029 µM
12,CS(=O)(=O)Nc1ccc2c(c1)S(=O)(=O)N=C(C1=C(O)[C@@H]3C4CCC(CC4)[C@@H]3N(Cc3ccco3)C1=O)N2,0.08 µM
13,CC(C)CCN1C(=O)C(C2=NS(=O)(=O)c3cc(NS(C)(=O)=O)ccc3N2)=C(O)[C@@H]2[C@@H]3CC[C@@H](C3)[C@@H]21,0.089 µM
14,CS(=O)(=O)Nc1ccc2c(c1)S(=O)(=O)N=C(C1=C(O)[C@@H]3C4CCC(CC4)[C@@H]3N(CC3CCCC3)C1=O)N2,0.024 µM
15,CC(C)(C)CCN1C(=O)C(C2=NS(=O)(=O)c3cc(NS(C)(=O)=O)ccc3N2)=C(O)[C@@H]2[C@@H]3CC[C@@H](C3)[C@@H]21,0.05 µM

# The remaining compounds from weak to strong by EC50, led by results:
row,EC50,Structure (SMILES)
1,0.16 µM,CS(=O)(=O)Nc1ccc2c(c1)S(=O)(=O)N=C(C1=C(O)[C@@H]3[C@@H]4CC[C@@H](C4)[C@@H]3N(CC3CCCC3)C1=O)N2
2,0.072 µM,CS(=O)(=O)Nc1ccc2c(c1)S(=O)(=O)N=C(C1=C(O)[C@@H]3[C@H]4CC[C@H](C4)[C@@H]3N(CC3CCCC3)C1=O)N2
3,0.07 µM,CS(=O)(=O)Nc1ccc2c(c1)S(=O)(=O)N=C(C1=C(O)[C@@H]3[C@H]4CC[C@H](C4)[C@@H]3N(Cc3ccccc3F)C1=O)N2
4,0.063 µM,CS(=O)(=O)Nc1ccc2c(c1)S(=O)(=O)N=C(C1=C(O)[C@@H]3[C@@H]4CC[C@@H](C4)[C@@H]3N(CC3CCCCC3)C1=O)N2
5,0.055 µM,CS(=O)(=O)Nc1ccc2c(c1)S(=O)(=O)N=C(C1=C(O)[C@@H]3[C@@H]4CC[C@@H](C4)[C@@H]3N(Cc3ccc(F)cc3F)C1=O)N2
6,0.026 µM,CS(=O)(=O)Nc1ccc2c(c1)S(=O)(=O)N=C(C1=C(O)[C@@H]3C4CCC(CC4)[C@@H]3N(Cc3ccccc3F)C1=O)N2

# System: not listed separately
# Test: in vitro
# Conditions: human, liver microsomes, t1/2
row,Structure (SMILES),half-life at 1 µM
1,CS(=O)(=O)Nc1ccc2c(c1)S(=O)(=O)N=C(C1=C(O)[C@@H]3[C@@H]4CC[C@@H](C4)[C@@H]3N(Cc3ccc(F)c(F)c3F)C1=O)N2,> 60 min
2,COc1cccc(CN2C(=O)C(C3=NS(=O)(=O)c4cc(NS(C)(=O)=O)ccc4N3)=C(O)[C@@H]3[C@@H]4CC[C@@H](C4)[C@@H]32)c1,> 60 min
3,CS(=O)(=O)Nc1ccc2c(c1)S(=O)(=O)N=C(C1=C(O)[C@@H]3[C@@H]4CC[C@@H](C4)[C@@H]3N(Cc3ccccc3F)C1=O)N2,> 60 min
4,CS(=O)(=O)Nc1ccc2c(c1)S(=O)(=O)N=C(C1=C(O)[C@@H]3[C@H]4CC[C@H](C4)[C@@H]3N(CC3CCCCC3)C1=O)N2,44 min
5,Cc1ccc(CN2C(=O)C(C3=NS(=O)(=O)c4cc(NS(C)(=O)=O)ccc4N3)=C(O)[C@@H]3[C@H]4CC[C@H](C4)[C@@H]32)cc1F,> 60 min
6,COc1cccc(CN2C(=O)C(C3=NS(=O)(=O)c4cc(NS(C)(=O)=O)ccc4N3)=C(O)[C@@H]3[C@H]4CC[C@H](C4)[C@@H]32)c1,> 60 min
7,CS(=O)(=O)Nc1ccc2c(c1)S(=O)(=O)N=C(C1=C(O)[C@@H]3[C@H]4CC[C@H](C4)[C@@H]3N(Cc3ccccc3Cl)C1=O)N2,> 60 min
8,CS(=O)(=O)Nc1ccc2c(c1)S(=O)(=O)N=C(C1=C(O)[C@@H]3[C@H]4CC[C@H](C4)[C@@H]3N(Cc3ccccc3)C1=O)N2,> 60 min
9,CC(C)CCN1C(=O)C(C2=NS(=O)(=O)c3cc(NS(C)(=O)=O)ccc3N2)=C(O)[C@@H]2C3CCC(CC3)[C@@H]21,59 min
10,CS(=O)(=O)Nc1ccc2c(c1)S(=O)(=O)N=C(C1=C(O)[C@@H]3C4CCC(CC4)[C@@H]3N(Cc3ccco3)C1=O)N2,> 60 min
11,CC(C)CCN1C(=O)C(C2=NS(=O)(=O)c3cc(NS(C)(=O)=O)ccc3N2)=C(O)[C@@H]2[C@@H]3CC[C@@H](C3)[C@@H]21,18 min
12,CS(=O)(=O)Nc1ccc2c(c1)S(=O)(=O)N=C(C1=C(O)[C@@H]3C4CCC(CC4)[C@@H]3N(CC3CCCC3)C1=O)N2,47 min

# Results, then the compound that gave them:
row,half-life at 1 µM,Structure (SMILES)
1,> 60 min,CS(=O)(=O)Nc1ccc2c(c1)S(=O)(=O)N=C(C1=C(O)[C@@H]3[C@H]4CC[C@H](C4)[C@@H]3N(Cc3ccccc3F)C1=O)N2
2,15 min,CS(=O)(=O)Nc1ccc2c(c1)S(=O)(=O)N=C(C1=C(O)[C@@H]3[C@@H]4CC[C@@H](C4)[C@@H]3N(CC3CCCCC3)C1=O)N2
3,> 60 min,CS(=O)(=O)Nc1ccc2c(c1)S(=O)(=O)N=C(C1=C(O)[C@@H]3C4CCC(CC4)[C@@H]3N(Cc3ccccc3F)C1=O)N2

# Same assay, conditions: human, microsomes, t1/2
row,Structure (SMILES),half-life at 1 µM
1,COc1cc(CN2C(=O)C(C3=NS(=O)(=O)c4cc(NS(C)(=O)=O)ccc4N3)=C(O)[C@@H]3[C@@H]4CC[C@@H](C4)[C@@H]32)ccc1F,> 60 min
2,CS(=O)(=O)Nc1ccc2c(c1)S(=O)(=O)N=C(C1=C(O)[C@@H]3[C@@H]4CC[C@@H](C4)[C@@H]3N(Cc3ccc(Cl)cc3)C1=O)N2,> 60 min
3,CC(C)(C)CCN1C(=O)C(C2=NS(=O)(=O)c3cc(NS(C)(=O)=O)ccc3N2)=C(O)[C@@H]2[C@@H]3CC[C@@H](C3)[C@@H]21,3 min

# Continued, values first:
row,half-life at 1 µM,Structure (SMILES)
1,17 min,CS(=O)(=O)Nc1ccc2c(c1)S(=O)(=O)N=C(C1=C(O)[C@@H]3[C@@H]4CC[C@@H](C4)[C@@H]3N(CC3CCCC3)C1=O)N2
2,46 min,CS(=O)(=O)Nc1ccc2c(c1)S(=O)(=O)N=C(C1=C(O)[C@@H]3[C@H]4CC[C@H](C4)[C@@H]3N(CC3CCCC3)C1=O)N2
3,> 60 min,CS(=O)(=O)Nc1ccc2c(c1)S(=O)(=O)N=C(C1=C(O)[C@@H]3[C@@H]4CC[C@@H](C4)[C@@H]3N(Cc3ccc(F)cc3F)C1=O)N2

# System: not listed separately
# Test: in vitro
# Conditions: human, liver microsomes
# Description: Metabolic stability in human liver microsomes assessed as compound remaining after 60 mins at 1 uM
row,Structure (SMILES),"remaining at 1 h, 1 µM"
1,CS(=O)(=O)Nc1ccc2c(c1)S(=O)(=O)N=C(C1=C(O)[C@@H]3[C@@H]4CC[C@@H](C4)[C@@H]3N(Cc3ccc(F)c(F)c3F)C1=O)N2,87%
2,COc1cccc(CN2C(=O)C(C3=NS(=O)(=O)c4cc(NS(C)(=O)=O)ccc4N3)=C(O)[C@@H]3[C@@H]4CC[C@@H](C4)[C@@H]32)c1,83%
3,CS(=O)(=O)Nc1ccc2c(c1)S(=O)(=O)N=C(C1=C(O)[C@@H]3[C@@H]4CC[C@@H](C4)[C@@H]3N(Cc3ccccc3F)C1=O)N2,83%
4,Cc1ccc(CN2C(=O)C(C3=NS(=O)(=O)c4cc(NS(C)(=O)=O)ccc4N3)=C(O)[C@@H]3[C@H]4CC[C@H](C4)[C@@H]32)cc1F,78%
5,COc1cccc(CN2C(=O)C(C3=NS(=O)(=O)c4cc(NS(C)(=O)=O)ccc4N3)=C(O)[C@@H]3[C@H]4CC[C@H](C4)[C@@H]32)c1,61%
6,CS(=O)(=O)Nc1ccc2c(c1)S(=O)(=O)N=C(C1=C(O)[C@@H]3[C@H]4CC[C@H](C4)[C@@H]3N(Cc3ccccc3Cl)C1=O)N2,100%
7,CS(=O)(=O)Nc1ccc2c(c1)S(=O)(=O)N=C(C1=C(O)[C@@H]3[C@H]4CC[C@H](C4)[C@@H]3N(Cc3ccccc3)C1=O)N2,80%
8,CS(=O)(=O)Nc1ccc2c(c1)S(=O)(=O)N=C(C1=C(O)[C@@H]3C4CCC(CC4)[C@@H]3N(Cc3ccco3)C1=O)N2,96%

# Results, then the compound that gave them:
row,"remaining at 1 h, 1 µM",Structure (SMILES)
1,89%,CS(=O)(=O)Nc1ccc2c(c1)S(=O)(=O)N=C(C1=C(O)[C@@H]3[C@H]4CC[C@H](C4)[C@@H]3N(Cc3ccccc3F)C1=O)N2
2,81%,CS(=O)(=O)Nc1ccc2c(c1)S(=O)(=O)N=C(C1=C(O)[C@@H]3C4CCC(CC4)[C@@H]3N(Cc3ccccc3F)C1=O)N2

# Same assay, conditions: human, microsomes
row,Structure (SMILES),"remaining at 1 h, 1 µM"
1,COc1cc(CN2C(=O)C(C3=NS(=O)(=O)c4cc(NS(C)(=O)=O)ccc4N3)=C(O)[C@@H]3[C@@H]4CC[C@@H](C4)[C@@H]32)ccc1F,64%
2,CS(=O)(=O)Nc1ccc2c(c1)S(=O)(=O)N=C(C1=C(O)[C@@H]3[C@@H]4CC[C@@H](C4)[C@@H]3N(Cc3ccc(Cl)cc3)C1=O)N2,100%
3,CS(=O)(=O)Nc1ccc2c(c1)S(=O)(=O)N=C(C1=C(O)[C@@H]3[C@@H]4CC[C@@H](C4)[C@@H]3N(Cc3ccc(F)cc3F)C1=O)N2,100%

# — ChEMBL document CHEMBL1154345, “Discovery of tricyclic 5,6-dihydro-1H-pyridin-2-ones as novel, potent, and orally bioavailable inhibitors of HCV NS5B polymerase” (Bioorg Med Chem Lett, 2009)
